Test results taken from patent publication US8829185B2 (Bayer HealthCare LLC, priority 2005, dated 2014).

Target: T1, FGFR1-GST (Homo sapiens, UniProt P11362)
T1 construct: GST; made in house
Assay: FGFR-1 TR-FRET biochemical assay
Protocol: FGFR-1 TR-FRET Biochemical Assay
The FGFR-1 Assay was performed on half well 96-well opaque plates (Costar 3915) in a LANCE format. LANCE is a homogenous time resolved fluormetry based application available through Perkin Elmer. For this assay, 50 uL reactions were set up using: 0.6 uM ATP (Sigma), 25 nM poly GT-biotin (CIS BIO International), 2 nM Eu-labelled phospho-Tyr Ab (PY20 PerkinElmer), 10 nM Streptavidin-APC (Perkin Elmer), 5 nM FGFR1-GST (generated by DRT, Bayer Healthcare), 1% DMSO, 50 mM HEPES pH 7.5, 10 mM MgCl2, 0.1 mM EDTA, 0.015% Brij, 0.1 mg/ml BSA, 0.1% B-mercaptoethanol. All reactions were initiated with the addition of enzyme and were left to incubate for one hour at room temperature. Time-resolved fluorescence was then read on a Perkin Elmer VictorV Multilabel counter. The reading protocol uses an excitation wavelength at 340 nm and emission reads at both 615 and 665 nm. Signal was calculated as a ratio: (Fluorescence at 665 nm/Fluorescence at […])*10000 for each well. The background control used for this assay is the signal produced with all assay components excluding ATP. For IC50 generation, compounds were added prior to the enzyme initiation. A 50-fold stock plate was made with compounds serially diluted 1:5 in a 50% DMSO/50% dH2O solution. A 1 μL addition of the stock to the assay wells gave final compound concentrations ranging from 10 μM −0.128 nM in 1% DMSO. The data were expressed as percent inhibition: % inhibition=100−((Signal with inhibitor-background)/(Signal without inhibitor−background))*100.

T1 sequence (P11362 22-822): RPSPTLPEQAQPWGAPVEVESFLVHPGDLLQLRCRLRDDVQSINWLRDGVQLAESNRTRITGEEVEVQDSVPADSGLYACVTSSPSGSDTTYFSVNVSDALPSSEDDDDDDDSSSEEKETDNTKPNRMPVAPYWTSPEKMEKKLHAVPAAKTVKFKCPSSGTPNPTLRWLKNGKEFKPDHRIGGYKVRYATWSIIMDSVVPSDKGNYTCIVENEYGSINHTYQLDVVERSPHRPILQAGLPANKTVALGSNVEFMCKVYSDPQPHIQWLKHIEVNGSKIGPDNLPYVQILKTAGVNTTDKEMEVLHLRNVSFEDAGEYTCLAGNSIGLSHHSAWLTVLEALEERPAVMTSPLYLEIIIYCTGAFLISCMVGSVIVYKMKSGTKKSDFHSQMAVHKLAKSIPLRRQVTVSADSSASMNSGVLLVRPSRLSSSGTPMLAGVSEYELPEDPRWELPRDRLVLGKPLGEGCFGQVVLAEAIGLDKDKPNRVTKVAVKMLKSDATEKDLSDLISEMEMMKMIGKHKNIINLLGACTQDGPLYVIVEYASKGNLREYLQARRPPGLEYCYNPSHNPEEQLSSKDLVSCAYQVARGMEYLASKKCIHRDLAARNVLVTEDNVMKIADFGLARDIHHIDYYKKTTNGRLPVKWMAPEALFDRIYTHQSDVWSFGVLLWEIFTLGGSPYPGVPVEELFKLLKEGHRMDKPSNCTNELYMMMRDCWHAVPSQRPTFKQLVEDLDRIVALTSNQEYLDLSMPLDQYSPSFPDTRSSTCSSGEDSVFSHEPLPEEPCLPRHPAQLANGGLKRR

SMILES	IC50 (bounds given in nM)	IC50 (upper bound in μM)
CC(C)(C)C(=O)c1c(-c2ccc(NC(=O)Nc3cc(C(F)(F)F)ccn3)cc2)c2c(N)ncnn2c1CN1CCOCC1 [Example 92, N-{4-[4-amino-6-(2,2-dimethylpropanoyl)-7-(morpholin-4-ylmethyl)pyrrolo[2,1-f][1,2,4]triazin-5-yl]phenyl}-N′-[4-(trifluoromethyl)-pyridin-2-yl]urea]	> 100 nM	< 1000 nM
COCc1c(-c2ccc(NC(=O)Nc3cc(C(F)(F)F)ccc3F)c(F)c2)c2c(N)ncnn2c1CN1CCNC(=O)C1 [Example 44, N-(4-{4-amino-6-(methoxymethyl)-7-[(3-oxopiperazin-1-yl)methyl]pyrrolo[2,1-f][1,2,4]triazin-5-yl}-2-fluorophenyl)-N′-[2-fluoro-5-(trifluoromethyl)phenyl]urea]	< 10 nM	–
COCc1c(-c2ccc(NC(=O)Nc3cc(C(F)(F)F)ccn3)cc2)c2c(N)ncnn2c1CN1CCC(F)(F)CC1 [Example 40, N-{4-[4-amino-7-[(4,4-difluoropiperidin-1-yl)methyl]-6-(methoxymethyl)pyrrolo[2,1-f][1,2,4]triazin-5-yl]phenyl}-N′-[4-(trifluoromethyl)pyridin-2-yl]urea]	> 100 nM	< 1000 nM
COCc1c(-c2ccc(NC(=O)Nc3cc(C(F)(F)F)ccn3)c(C)c2)c2c(N)ncnn2c1CN1CCOCC1 [Example 145, N-4-[4-amino-6-(methoxymethyl)-7-(morpholin-4-ylmethyl)pyrrolo[2,1-f][1,2,4]triazin-5-yl]-2-methylphenyl-N′-[4-(trifluoromethyl)pyridin-2-yl]urea]	< 10 nM	–
CC(=O)c1c(-c2ccc(NC(=O)Nc3cc(C(F)(F)F)ccn3)cc2)c2c(N)ncnn2c1CN1CCN(C)CC1 [Example 96, N-(4-{6-acetyl-4-amino-7-[(4-methylpiperazin-1-yl)methyl]pyrrolo[2,1-f][1,2,4]triazin-5-yl}phenyl)-N′-[4-(trifluoromethyl)-pyridin-2-yl]urea]	10 to 100 nM	–
COCc1c(-c2ccc(NC(=O)Nc3cc(C(F)(F)F)ccc3Cl)cc2)c2c(N)ncnn2c1CN1CCOCC1 [Example 49, N-{4-[4-amino-6-(methoxymethyl)-7-(morpholin-4-ylmethyl)pyrrolo[2,1-f][1,2,4]triazin-5-yl]phenyl}-N′-[2-chloro-5-(trifluoromethyl)phenyl]urea]	10 to 100 nM	–
COCCNCc1c(COC)c(-c2ccc(NC(=O)Nc3cc(C(F)(F)F)ccc3F)cc2)c2c(N)ncnn12 [Example 15, N-{4-[4-amino-7-{[(2-methoxyethyl)amino]methyl}-6-(methoxymethyl)pyrrolo[2,1-f][1,2,4]triazin-5-yl]phenyl}-N′-[2-fluoro-5-(trifluoromethyl)phenyl]urea]	10 to 100 nM	–
Nc1ncnn2c(CN3CCOCC3)c(-c3cnco3)c(-c3ccc(NC(=O)Nc4cccc(OC(F)(F)F)c4)cc3)c12 [Example 28, N-4-[4-amino-7-(morpholin-4-ylmethyl)-6-(1,3-oxazol-5-yl)pyrrolo[2,1-f][1,2,4]triazin-5-yl]phenyl-N′-[3-(trifluoromethoxy)-phenyl]urea]	< 10 nM	–
CCC(=O)c1c(-c2ccc(NC(=O)Nc3cc(C(F)(F)F)ccn3)cc2)c2c(N)ncnn2c1CN1CCOCC1 [Example 90, N-{4-[4-amino-7-(morpholin-4-ylmethyl)-6-propionylpyrrolo[2,1-f][1,2,4]triazin-5-yl]phenyl}-N′-[4-(trifluoromethyl)-pyridin-2-yl]urea]	10 to 100 nM	–
CC(=O)c1c(-c2ccc(NC(=O)Nc3ccc(OC(F)(F)F)cc3)c(F)c2)c2c(N)ncnn2c1CN1CCOCC1 [Example 59, N-4-[6-acetyl-4-amino-7-(morpholin-4-ylmethyl)pyrrolo[2,1-f][1,2,4]triazin-5-yl]-2-fluorophenyl-N′-[4-(trifluoromethoxy)phenyl]urea]	10 to 100 nM	–
COCc1c(-c2ccc(NC(=O)Nc3cc(C(F)(F)F)ccc3F)c(F)c2)c2c(N)ncnn2c1C1CCN(C(=O)N(C)C)CC1 [Example 150, 4-{4-amino-5-[3-fluoro-4-({[2-fluoro-5-(trifluoromethyl)-phenyl]carbamoyl}amino)phenyl]-6-(methoxymethyl)-pyrrolo[2,1f][1,2,4]-triazin-7-yl}-N,N-dimethylpiperidine-1-carboxamide]	> 100 nM	< 1000 nM
COCc1c(-c2ccc(NC(=O)Nc3cc(C)ccc3F)c(F)c2)c2c(N)ncnn2c1CN1CCCOCC1 [Example 140, N-{4-[4-amino-6-(methoxymethyl)-7-(1,4-oxazepan-4-ylmethyl)-pyrrolo[2,1-f][1,2,4]triazin-5-yl]-2-fluorophenyl}-N′-(2-fluoro-5-methylphenyl)urea]	10 to 100 nM	–
COCc1c(-c2ccc(NC(=O)Nc3cc(C(F)(F)F)ccc3F)c(F)c2)c2c(N)ncnn2c1CN1CCOC(CO)C1 (centres unmarked) [Example 47, N-{4-[4-amino-7-{[2-(hydroxymethyl)morpholin-4-yl]methyl}-6-(methoxymethyl)pyrrolo[2,1-f][1,2,4]triazin-5-yl]-2-fluorophenyl}-N′-[2-fluoro-5-(trifluoromethyl)-phenyl]urea]	10 to 100 nM	–
CCOC(=O)c1c(-c2ccc(NC(=O)Nc3cc(C(F)(F)F)ccn3)cc2)c2c(N)ncnn2c1-c1ccc(OC)cc1 [Example 4, ethyl 4-amino-7-(4-methoxyphenyl)-5-{4-[({[4-(trifluoromethyl)pyridin-2-yl]amino}carbonyl)amino]-phenyl}pyrrolo[2,1-f][1,2,4]triazine-6-carboxylate]	10 to 100 nM	–
COCc1c(-c2ccc(NC(=O)Nc3cccc(C(C)(C)C)c3)c(F)c2)c2c(N)ncnn2c1CN1CCOCC1 [Example 138, N-{4-[4-amino-6-(methoxymethyl)-7-(morpholin-4-ylmethyl)-pyrrolo[2,1-f][1,2,4]triazin-5-yl]-2-fluorophenyl}-N′-(3-tert-butylphenyl)urea]	< 10 nM	–
CN1CCN(Cc2c(-c3cnco3)c(-c3ccc(NC(=O)Nc4cc(C(F)(F)F)ccc4F)cc3)c3c(N)ncnn23)CC1 [Example 31, N-4-[4-amino-7-[(4-methylpiperazin-1-yl)methyl]-6-(1,3-oxazol-5-yl)pyrrolo[2,1-f][1,2,4]triazin-5-yl]phenyl-N′-[2-fluoro-5-(trifluoromethyl)phenyl]urea]	< 10 nM	–
Nc1ncnn2c(CN3CCOCC3)c(Cl)c(-c3cc(F)c(NC(=O)Nc4cc(C(F)(F)F)ccc4F)cc3F)c12 [Example 156, N-{4-[4-amino-6-chloro-7-(morpholin-4-ylmethyl)pyrrolo[2,1-f][1,2,4]triazin-5-yl]-2,5-difluorophenyl}-N′-[2-fluoro-5-(trifluoromethyl)-phenyl]urea]	> 100 nM	< 1000 nM
Cc1cc(-c2c(C)c(CN3CCCOCC3)n3ncnc(N)c23)ccc1NC(=O)Nc1cc(C(F)(F)F)ccc1F [Example 126, 1-{4-[4-amino-6-methyl-7-(1,4-oxazepan-4-ylmethyl)pyrrolo[2,1-f][1,2,4]triazin-5-yl]-2-methylphenyl}-3-[2-fluoro-5-(trifluoromethyl)-phenyl]urea]	< 10 nM	–
Nc1ncnn2c(CN3CCOCC3)c(Cl)c(-c3ccc(NC(=O)Nc4cc(C(F)(F)F)ccc4F)cc3)c12 [Example 154, N-{4-[4-amino-6-chloro-7-(morpholin-4-ylmethyl)pyrrolo[2,1-f][1,2,4]triazin-5-yl]phenyl}-N′-[2-fluoro-5-(trifluoromethyl)phenyl]urea]	< 10 nM	–
CC(=O)c1c(-c2ccc(NC(=O)Nc3cc(C(F)(F)F)ccc3F)cc2)c2c(N)ncnn2c1CN1CCOCC1 [Example 105, N-4-[6-acetyl-4-amino-7-(morpholin-4-ylmethyl)pyrrolo[2,1-f][1,2,4]triazin-5-yl]phenyl-N′-[2-fluoro-5-(trifluoromethyl)phenyl]urea]	< 10 nM	–
CCOC(=O)c1c(-c2ccc(NC(=O)Nc3cc(C(F)(F)F)ccn3)cc2)c2c(N)ncnn2c1C#N [Example 6, ethyl 4-amino-7-cyano-5-{4-[({[4-(trifluoromethyl)pyridin-2-yl]amino}carbonyl)amino]phenyl}pyrrolo[2,1-f][1,2,4]triazine-6-carboxylate]	> 100 nM	< 1000 nM
Cc1cc(-c2c(C)c(CN3CCCOCC3)n3ncnc(N)c23)ccc1NC(=O)Nc1cc(C(F)(F)F)ccn1 [Example 124, N-{4-[4-amino-6-methyl-7-(1,4-oxazepan-4-ylmethyl)pyrrolo[2,1-f][1,2,4]triazin-5-yl]-2-methylphenyl}-N′-[4-(trifluoromethyl)pyridin-2-yl]urea]	< 10 nM	–
COCc1c(-c2ccc(NC(=O)Nc3cc(C(F)(F)F)ccc3F)cc2)c2c(N)ncnn2c1COC [Example 24, N-{4-[4-amino-6,7-bis(methoxymethyl)pyrrolo[2,1-f]-[1,2,4]triazin-5-yl]phenyl}-N′-[2-fluoro-5-(trifluoromethyl)phenyl]urea]	10 to 100 nM	–
CC(=O)c1c(-c2ccc(NC(=O)Nc3cc(C(F)(F)F)ccc3F)c(F)c2)c2c(N)ncnn2c1CN1CCOCC1 [Example 57, N-4-[6-acetyl-4-amino-7-(morpholin-4-ylmethyl)pyrrolo[2,1-f]-[1,2,4]triazin-5-yl]-2-fluorophenyl-N′-[2-fluoro-5-(trifluoromethyl)phenyl]urea]	10 to 100 nM	–
